We go through four compounds from patent publication US20070003536A1, “Topical skin compositions, their preparation, and their use” (priority 2000, published 2007).

Molecules are shown by their SMILES.

One assay concerns RAW 264.7 cells. The experiment in a line: NO production by LPS stimulated RAW 264.7 cells (Griess reagent). As to conditions: for inhibitory effect on nitrite accumulation in culture supernatants: LPS stimulated RAW cells, in words; for Nitrite produced: LPS 100 ng/ml, LPS control 901.7. It is filed as cell-based, Murine. As to the method:
FIG. 8 is a graph showing the effect of samples on NO production by RAW 264.7 cells. Data are expressed as % NO produced compared to the LPS stimulated positive control. L6=Lipochroman-6, NT=Nutriene tocotrienols, TQS=γ-Tocopherylquinone S, VC=Viapure Citrus, SZ=Soybean Zymbiosome, and NPR=NAB Pikea robusta.
Cells in skin can produce nitric oxide (NO) when exposed to UV light, and NO thus produced has the potential to induce age associated changes in skin. This study was performed in order to screen a panel of cosmetics and skin care raw materials for their effect on NO production by RAW 264.7 cells.
Murine RAW 264.7 cells were seeded in a 96 well plate at 1×10^5 cells /well. The plate was incubated overnight. The following day, the cells were treated with the samples at 0.001, 0.01, and 0.1% for 2 hours. The samples are listed below in Table II. Following the exposure period, LPS was added to the wells at 100 ng/ml. The plate was incubated overnight. Equal volumes of culture supernatant and Griess reagent were incubated for 15 min at room temperature and the absorbance at 540 nm was read. The amount of nitrite in the samples was calculated from a standard curve generated with sodium nitrite.

The test system of assay [1] is Human dermal fibroblasts (Hs-27). The assay can be described thus: Procollagen secretion by fibroblasts, energy booster samples with co-stimuli, Example 4. The format is cell-based. As to conditions: Media line: stimulus alone, no energy booster (Centella asiatica, vitamin C 0.001%; Biodynes EMPP 0.1%); media control 1533. As to the method: (§1) Four new samples that boost cellular energy were tested for their ability to augment extracellular matrix component production in response to Centella and Biodynes. Human dermal fibroblasts were used as these cells actively synthesize extracellular matrix components. In addition to measuring procollagen and elastin levels, hyaluronic acid levels were also measured. Hyaluronic acid is a member of the glycosaminoglycan family of compounds. Glycosaminoglycans make up the ground substance of connective tissue, and along with elastin, help provide elasticity to skin. They also hold water and therefore provide viscosity and hydrating properties.
(§2) Samples were diluted in media. Centella asiatica and vitamin C were prepared at 0.001%. Biodynes EMPP was prepared at 0.1%. Centella asiatica was prepared as an extract in DMSO:ethanol:water at 50:30:20. The “energy booster” samples, Seanergilium algae extract, Thiotaine, Sepitonic, and Phytovityl corn kernel extract, were all prepared in media at 0.01, 0.1, and 1.0%. Human dermal fibroblasts (Hs-27) were plated in 24 well plates and were incubated overnight. The cells were treated with the samples at the concentrations indicated for 2 consecutive days. […]

Assay [2] has the same test system. The assay can be described thus: Elastin secretion by fibroblasts, energy booster samples with co-stimuli, Example 4. The format is cell-based. As to conditions: Media line: stimulus alone, no energy booster (Centella asiatica, vitamin C 0.001%; Biodynes EMPP 0.1%). As to the method:
as §1, §2

Assay [3] has the same test system. The experiment in a line: Hyaluronic acid secretion by fibroblasts, energy booster samples with co-stimuli, Example 4. It is filed as cell-based. As to conditions: Media line: stimulus alone, no energy booster (Centella asiatica, vitamin C 0.001%; Biodynes EMPP 0.1%); media control 1112. As to the method: as §1
Samples were diluted in media. Centella asiatica and vitamin C were prepared at 0.001%. Biodynes EMPP was prepared at 0.1%. Centella asiatica was prepared as an extract in DMSO:ethanol:water at 50:30:20. The “energy booster” samples, Seanergilium algae extract, Thiotaine, Sepitonic, and Phytovityl corn kernel extract, were all prepared in media at 0.01, 0.1, and 1.0%. Human dermal fibroblasts (Hs-27) were plated in 24 well plates and were incubated overnight. […]
Data are expressed as ng hyaluronic acid/ml culture supernatant. The amount of hyaluronic acid in each supernatant was calculated from a standard curve generated using a hyaluronic acid standard supplied with the ELISA kit.

For assay [4], the target named is T1, MMP-1 (interstitial collagenase) (Homo sapiens, UniProt P03956).
T1 construct: purchased Amersham
T1 sequence (P03956 100-469): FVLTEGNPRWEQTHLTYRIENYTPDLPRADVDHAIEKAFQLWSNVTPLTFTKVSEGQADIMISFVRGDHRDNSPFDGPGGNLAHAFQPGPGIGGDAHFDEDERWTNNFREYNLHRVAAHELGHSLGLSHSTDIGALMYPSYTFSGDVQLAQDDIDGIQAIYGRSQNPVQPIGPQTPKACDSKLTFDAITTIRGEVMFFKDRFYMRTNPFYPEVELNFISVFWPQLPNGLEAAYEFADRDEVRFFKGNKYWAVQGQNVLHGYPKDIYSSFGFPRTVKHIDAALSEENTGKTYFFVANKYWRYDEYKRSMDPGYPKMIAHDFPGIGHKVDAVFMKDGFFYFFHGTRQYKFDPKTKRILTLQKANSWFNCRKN
The experiment in a line: MMP-1 activity kit (Amersham). As to conditions: samples diluted to 100 mg/ml using PBS; FIG. 5. The format is biochemical. From the text:
FIG. 5 is a graph showing the effect of samples on MMP-1 activity. The data are expressed as % control MMP-1 activity. The horizontal line denotes 100% activity.
The matrix metalloproteinases (MMP) are a group of zinc dependent enzymes, which degrade varying components of the extracellular matrix in both normal and diseased tissue. MMP-1 (interstitial collagenase) is thought to initiate the cleavage of fibrillar collagen while MMP-9 (gelatinase) digests the denatured collagen fragments generated by MMP-1. The products of MMP-9 digestion are then free to be incorporated into new collagen fibrils. Elastase breaks down elastin. The expression of these enzymes is under strict control and changes as individuals age or are exposed to UV irradiation. Because MMP-1 is involved in initiation of collagen breakdown, it would be advantageous for skin care products to inhibit MMP-1 activity. […] Finally, elastase should be inhibited as to prevent digestion of elastin and the […] of the skin.
Commercially available kits were used for testing the effect of the samples on the activity of the MMPs of interest. For MMP-1, a kit from Amersham was used according to the manufacturer's specifications. For MMP-9 and Elastase, kits from Molecular Probes were used. The samples were prepared in the solvent noted in table I at stock concentrations of 100 mg/ml. […]

As to `CC1=C(C)C(=O)C(CC[C@](C)(O)CCC[C@H](C)CCC[C@H](C)CCCC(C)C)=CC1=O` [g-Tocopherylquinone S], in the assay on RAW 264.7 cells, the “inhibitory effect on nitrite accumulation in culture supernatants” value is given as “most potent”. The results for the Nitrite produced in the assay with RAW 264.7 cells (dose 0.001%), in the assay with RAW 264.7 cells (dose 0.01%) and in the assay with RAW 264.7 cells (dose 0.1%) were 754.2 ng/mL, 830.3 ng/mL and 217.9 ng/mL, respectively.

As for `COc1cc2c(cc1O)CCC(C)(C)O2` [Lipochroman-6], the “inhibitory effect on nitrite accumulation in culture supernatants” value in the assay with RAW 264.7 cells is “most potent”; in the assay on RAW 264.7 cells (listed as L6), “more inhibitory activity than do mixed tocopherols”. Further, the Nitrite produced in the assay with RAW 264.7 cells (dose 0.001%) came to 1006.5 ng/mL; in the assay with RAW 264.7 cells (dose 0.01%) it was 750.7 ng/mL; with RAW 264.7 cells (dose 0.1%), 336.7 ng/mL.

In assay [1], `O=C1O[C@H]([C@@H](O)CO)C(O)=C1O` [Vitamin C, ascorbic acid] returned a procollagen secretion of 1744 ng/mL. Also, the “elastin secretion, % media control elastin” value in assay [2] is 148%. Further, the hyaluronic acid secretion in assay [3] is on record as 633 ng hyaluronic acid/ml culture supernatant.

On to `COC1=C(OC)C(=O)C(C/C=C(\C)CC/C=C(\C)CC/C=C(\C)CC/C=C(\C)CC/C=C(\C)CC/C=C(\C)CC/C=C(\C)CC/C=C(\C)CC/C=C(\C)CCC=C(C)C)=C(C)C1=O` [CoQ10, 2,3,-dimethoxy-5-methyl-6-decaprenyl-benzoquinone], for which, in assay [4], the “effect on MMP-1 activity” value is listed as “most potent activators”.
